According to US12486278B2, “MASP-2 inhibitors and methods of use” (Omeros Corporation, priority 2019, dated 2025):
Counter-ions that a name gives are not always drawn.

Molecular target: T1, MASP-2 (CCP1-CCP2-SP) (Homo sapiens, UniProt O00187)
T1 construct: 15 μL of Enzyme MASP-2 (CCP1-CCP2-SP) in Assay Buffer
Experiment: Enzymatic Assay for MASP-2 (fluorogenic substrate)
Type: biochemical
Settings: fluorogenic substrate based on C2 cleavage site; room temperature, 20 min; 20 mM HEPES pH 7.4, 140 mM NaCl, 0.1% Tween 20
Method: The MASP-2 assay utilizes a fluorogenic substrate, based on the cleavage site for its natural substrate C2. The assay is run at room temperature in an assay buffer containing 20 mM HEPES, pH 7.4, 140 mM NaCl and 0.1% Tween 20. Assay parameters are adjusted such that the assay is linear with respect to time, enzyme, and substrate concentrations. Under these optimized assays conditions, IC50 values are equivalent to Ki values, except in a few cases of “tight binding” inhibitors. Cases of “tight binding” or possible “slow binding” inhibitors are handled by the methods described in Copeland R. A. (2013) Evaluation of Enzyme Inhibitors in Drug Discovery. 2nd Ed., John Wiley and Sons, Inc., Chapters 5-7.
The MASP-2 assay protocol is carried out as follows. Test compounds are serially diluted in DMSO and then 100 nL of each dilution is transferred to the assay plate(s). 10 μL of Assay Buffer is added, followed by 15 μL of Enzyme MASP-2 (CCP1-CCP2-SP) in Assay Buffer. 15 μL of Substrate in Assay Buffer is then added and mixed to start the reactions. After 20 min at room temperature, 15 μL of a stop solution (0.1 M acetic acid) is added, mixed and the plates are read on a SpectraMax i3x Microplate Reader and exported as Excel files. Each assay plate included a “no inhibitor” (DMSO Only) control, a “no enzyme” control and a reference inhibitor control. % Activity values=100*(average test comp. fluorescence−average “no enzyme” fluorescence)/(average “DMSO only” fluorescence−average “no enzyme” fluorescence). IC50 and Ki values are very reproducible, falling well within ±2-fold.

T1 sequence (O00187 445-686 limits assumed): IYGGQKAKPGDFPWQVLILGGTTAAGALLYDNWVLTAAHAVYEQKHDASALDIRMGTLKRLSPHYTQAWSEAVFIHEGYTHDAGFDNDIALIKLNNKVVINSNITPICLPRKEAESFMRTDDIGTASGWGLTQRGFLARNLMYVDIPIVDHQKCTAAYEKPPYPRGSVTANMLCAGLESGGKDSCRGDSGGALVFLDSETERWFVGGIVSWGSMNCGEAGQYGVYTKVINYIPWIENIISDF
T1 sequence (O00187 298-444 partner limits assumed): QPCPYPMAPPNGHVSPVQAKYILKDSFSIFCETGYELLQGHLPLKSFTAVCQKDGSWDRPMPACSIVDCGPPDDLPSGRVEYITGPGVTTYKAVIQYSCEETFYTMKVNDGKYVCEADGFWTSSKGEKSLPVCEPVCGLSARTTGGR

Ki | SMILES
< 500 nM | Cc1nc(N)ccc1CNC(=O)[C@H](C)NC(=O)[C@H]1C[C@H](Cc2ccc(F)c(Cl)c2F)CN1 [Compound I-88, (2R,4S)—N—((S)-1-(((6-Amino-2-Methylpyridin-3-Yl)Methyl)Amino)-1-Oxopropan-2-Yl)-4-(3-Chloro-2,4-Difluorobenzyl)Pyrrolidine-2-Carboxamide Dihydrochloride]
< 500 nM | C[C@H](NC(=O)[C@H]1C[C@@H](c2ccccc2)CCN1)C(=O)NCc1ccc(C(=N)N)s1 [Compound I-91, (2R,4S)—N—((S)-1-(((5-carbamimidoylthiophen-2-yl)methyl)amino)-1-oxopropan-2-yl)-4-phenylpiperidine-2-carboxamide di-trifluoroacetate]
< 500 nM | C[C@H](NC(=O)[C@H]1C[C@@H](c2ccccc2)CCN1CCP(=O)(O)O)C(=O)NCc1cc2cnccc2[nH]1 [Compound I-39, (2-((2R,4S)-2-(((S)-1-(((1H-Pyrrolo[3,2-C]Pyridin-2-Yl)Methyl)Amino)-1-Oxopropan-2-Yl)Carbamoyl)-4-Phenylpiperidin-1-Yl)Ethyl)Phosphonic Acid Di-Trifluoroacetate]
< 500 nM | Cc1nc(N)ccc1CNC(=O)[C@H](C)NC(=O)[C@H]1C[C@H](Cc2ccc3c(C)cccc3c2)CN1 [Compound I-85, (2R,4S)—N—((S)-1-(((6-Amino-2-Methylpyridin-3-Yl)Methyl)Amino)-1-Oxopropan-2-Yl)-4-((5-Methylnaphthalen-2-Yl)Methyl)Pyrrolidine-2-Carboxamide Dihydrochloride]
< 500 nM | C[C@H](NC(=O)[C@H]1C[C@H](Cc2cc(Cl)c(Cl)s2)CN1)C(=O)NCc1cnc2c(c1)c(Cl)cn2C [Compound I-20, Trifluoroacetate]
< 500 nM | Cc1nc(N)ccc1CNC(=O)[C@H](C)NC(=O)[C@H]1C[C@H](Cc2cccc(C(=O)O)c2)CN1 [Compound I-48, 3-(((3S,5R)-5-(((S)-1-(((6-Amino-2-Methylpyridin-3-Yl)Methyl)Amino)-1-Oxopropan-2-Yl)Carbamoyl)Pyrrolidin-3-Yl)Methyl)Benzoic Acid Di-Trifluoroacetate]
500 to 2500 nM | C[C@H](NC(=O)[C@H]1C[C@H](c2ccccc2)CN1)C(=O)NCc1cc2ncccc2[nH]1 [Compound I-6, (2R,4R)—N—((S)-1-(((1H-Pyrrolo[3,2-b]pyridin-2-yl)methyl)amino)-1-oxopropan-2-yl)-4-phenylpyrrolidine-2-carboxamide di-trifluoroacetate]
< 500 nM | N=C(N)c1ccc(CNC(=O)[C@@H]2CCN2C(=O)[C@H]2C[C@@H](c3ccccc3)CCN2)cc1 [Compound I-66, (S)—N-(4-Carbamimidoylbenzyl)-1-((2R,4S)-4-Phenylpiperidine-2-Carbonyl)Azetidine-2-Carboxamide Trifluoroacetate]
< 500 nM | C[C@H](NC(=O)[C@H]1C[C@H](Cc2ccccc2)CN1)C(=O)NCc1ccc2c(c1)CNC2 [Compound I-9, (2R,4S)-4-Benzyl-N—((S)-1-((Isoindolin-5-Ylmethyl)Amino)-1-Oxopropan-2-Yl)Pyrrolidine-2-Carboxamide Di-Trifluoroacetate]
< 500 nM | C[C@H](NC(=O)[C@H]1C[C@@H](c2cccc(-c3ccccc3)c2)CCN1)C(=O)NCc1ccc(C(=N)N)cc1 [Compound I-68, (2R,4S)-4-([1,1′-Biphenyl]-3-Yl)-N—((S)-1-((4-Carbamimidoylbenzyl)Amino)-1-Oxopropan-2-Yl)Piperidine-2-Carboxamide Di-Trifluoroacetate]
< 500 nM | Cc1nc(N)ccc1CNC(=O)[C@H](C)NC(=O)[C@H]1C[C@H](Cc2cccc(C(=O)NCCCCl)c2)CN1 [Compound I-49, (2R,4S)—N—((S)-1-(((6-Amino-2-Methylpyridin-3-Yl)Methyl)Amino)-1-Oxopropan-2-Yl)-4-(3-((3-Chloropropyl)Carbamoyl)Benzyl)Pyrrolidine-2-Carboxamide Di-Trifluoroacetate]
< 500 nM | Cc1nc(N)ccc1CNC(=O)[C@H]1CC(F)(F)CN1C(=O)[C@@H]1C[C@@H](Cc2ccc(Br)cc2)CN1 [Compound I-61, (R)—N-((6-Amino-2-Methylpyridin-3-Yl)Methyl)-1-((2S,4R)-4-(4-Bromobenzyl)Pyrrolidine-2-Carbonyl)-4,4-Difluoropyrrolidine-2-Carboxamide Dihydrochloride]
500 to 2500 nM | Cc1nc(N)ccc1CNC(=O)[C@@H]1COCCN1C(=O)[C@H]1C[C@H](Cc2ccccc2)CN1 [Compound I-12, (S)—N-((6-Amino-2-Methylpyridin-3-Yl)Methyl)-4-((2R,4S)-4-Benzylpyrrolidine-2-Carbonyl)Morpholine-3-Carboxamide Di-Trifluoroacetate]
< 500 nM | C[C@H](NC(=O)[C@H]1C[C@@H](c2ccccc2)CCN1CCP(=O)(O)O)C(=O)NCc1ccc(C(=N)N)cc1 [Compound I-38, (2-((2R,4S)-2-(((S)-1-((4-Carbamimidoylbenzyl)Amino)-1-Oxopropan-2-Yl)Carbamoyl)-4-Phenylpiperidin-1-Yl)Ethyl)Phosphonic Acid Di-Trifluoroacetate]
< 500 nM | C[C@H](NC(=O)[C@H]1C[C@H](Cc2cc(Br)c(Cl)s2)CN1)C(=O)NCc1cnc2c(c1)c(Cl)cn2C [Compound I-19, (2R,4R)-4-((4-Bromo-5-Chlorothiophen-2-Yl)Methyl)-N—((S)-1-(((3-Chloro-1-Methyl-1H-Pyrrolo[2,3-B]Pyridin-5-Yl)Methyl)Amino)-1-Oxopropan-2-Yl)Pyrrolidine-2-Carboxamide Trifluoroacetate]
< 500 nM | COc1cccc([C@@H]2CN[C@@H](C(=O)N[C@@H](C)C(=O)NCc3ccc(C(=N)N)cc3)C2)c1 [Compound I-16, (2R,4R)—N—((S)-1-((4-Carbamimidoylbenzyl)Amino)-1-Oxopropan-2-Yl)-4-(3-Methoxyphenyl)Pyrrolidine-2-Carboxamide Dihydrochloride]
2500 to 10000 nM | C[C@H](NC(=O)[C@H]1C[C@@H](c2ccccc2)CCN1)C(=O)NCc1ccc(C#N)s1 [Compound I-92, (2R,4S)—N—((S)-1-(((5-Cyanothiophen-2-yl)methyl)amino)-1-oxopropan-2-yl)-4-phenylpiperidine-2-carboxamide hydrochloride]
< 500 nM | C[C@H](NC(=O)[C@H]1C[C@H](Cc2cc(Br)c(Cl)s2)CN1)C(=O)NCc1cc2cnccc2[nH]1 [Compound I-21, (2R,4R)—N—((S)-1-(((1H-Pyrrolo[3,2-C]Pyridin-2-Yl)Methyl)Amino)-1-Oxopropan-2-Yl)-4-((4-Bromo-5-Chlorothiophen-2-Yl)Methyl)Pyrrolidine-2-Carboxamide Di-Trifluoroacetate]
< 500 nM | C[C@H](NC(=O)[C@H]1C[C@@H](c2ccccc2)CCN1CCNS(C)(=O)=O)C(=O)NCc1ccc(C(=N)N)cc1 [Compound I-43, (2R,4S)—N—((S)-1-((4-Carbamimidoylbenzyl)Amino)-1-Oxopropan-2-Yl)-1-(2-(Methylsulfonamido)Ethyl)-4-Phenylpiperidine-2-Carboxamide Di-Trifluoroacetate]
500 to 2500 nM | C[C@H](NC(=O)[C@H]1C[C@@H](c2ccccc2)CCN1CCCP(=O)(O)O)C(=O)NCc1cc(Cl)ccc1-n1cnnn1 [Compound I-40, (3-((2R,4S)-2-(((S)-1-((5-Chloro-2-(1H-Tetrazol-1-Yl)Benzyl)Amino)-1-Oxopropan-2-Yl)Carbamoyl)-4-Phenylpiperidin-1-Yl)Propyl)Phosphonic Acid Di-Trifluoroacetate]
< 500 nM | C[C@H](NC(=O)[C@H]1C[C@@H](c2cccc(-n3cccn3)c2)CCN1)C(=O)NCc1cc(Cl)ccc1-n1cnnn1 [Compound I-79, (2R,4S)-4-(3-(1H-Pyrazol-1-Yl)Phenyl)-N—((S)-1-((5-Chloro-2-(1H-Tetrazol-1-Yl)Benzyl)Amino)-1-Oxopropan-2-Yl)Piperidine-2-Carboxamide Dihydrochloride]
500 to 2500 nM | C[C@H](NC(=O)[C@H]1C[C@H](c2ccccc2)CN1)C(=O)NCc1nc2c(Cl)cccc2s1 [Compound I-4, (2R,4R)—N—((S)-1-(((4-Chlorobenzo[D]Thiazol-2-Yl)Methyl)Amino)-1-Oxopropan-2-Yl)-4-Phenylpyrrolidine-2-Carboxamide Trifluoroacetate]
< 500 nM | CCOC(=O)CCN1CC[C@H](c2ccccc2)C[C@@H]1C(=O)N[C@@H](C)C(=O)NCc1ccc(C(=N)N)cc1 [Compound I-31, Ethyl 3-((2R,4S)-2-(((S)-1-((4-Carbamimidoylbenzyl)Amino)-1-Oxopropan-2-Yl)Carbamoyl)-4-Phenylpiperidin-1-Yl)Propanoate]
< 500 nM | C[C@H](NC(=O)[C@H]1C[C@H](Oc2ccccc2)CN1)C(=O)NCc1cnc2c(c1)c(Cl)cn2C [Compound I-46, (2R,4S)—N—((S)-1-(((3-Chloro-1-Methyl-1H-Pyrrolo[2,3-B]Pyridin-5-Yl)Methyl)Amino)-1-Oxopropan-2-Yl)-4-Phenoxypyrrolidine-2-Carboxamide Trifluoroacetate]
